{"source": "patent US5635356A", "about": "“Anti-oncoimmunin-M antibodies and uses thereof” (The United States of America as represented by the …, priority 1994, dated 1997)", "system": "Oncoimmunin-M treated HL-60 cells", "experiment": "Chemotaxis in multiwell microchemotaxis chamber", "type": "cell-based, human", "conditions": "HL-60 cells exposed to Oncoimmunin-M (2 nM) for two days; f-Met-Leu-Phe 10^-10 to 10^-6 M; 3 hr, 37° C.; FIG. 22C", "protocol": "To assess whether the Oncoimmunin-M induced alterations in integrin expression are associated with the induction of a biologic activity which could serve a role in antitumor or antimicrobial function, HL-60 cells that had been exposed to Oncoimmunin-M (2 nM) for two days were assayed for chemotactic ability. Specifically, the treated cells were placed in a multiwell microchemotaxis chamber and assayed for their ability to migrate in response to a gradient of the chemoattractant recombinant human C5a (rHuC5a), recombinant interleukin-8, and the peptide f-Met-Leu-Phe.\nCells were suspended in the serum-free medium (SFM) at a concentration of 5×10^5 cells/ml. Assays in which the total number of cells migrating through the polyvinylpyrrolidone-free polycarbonate membranes (5 μm pores; Nucleopore Corp., Pleasanton, Calif.) were performed for 3 hr in a 37° C. incubator containing 5% CO2. After incubation, nonmigrated cells were wiped off the filters which were then fixed in methanol and stained with Diff-Quik (Dade Diagnostics, Inc., Aguada, Puerto Rico). Migrated cells were counted with an Optomax System 40-10 Image Analyzer (Optomax, Inc., Hollis, N.H., U.S.A.). Random migration was determined by quantifying cell migration to serum-free medium alone."}
{"compound": "CSCC[C@H](NC=O)C(=O)N[C@@H](CC(C)C)C(=O)N[C@@H](Cc1ccccc1)C(=O)O", "note": "[f-Met-Leu-Phe]", "values": [{"measurement": "migratory (chemotactic) response to chemoattractant gradient", "value": "no significant response"}]}
